Data published in ChEMBL document CHEMBL2385072, “Development of oleanane-type triterpenes as a new class of HCV entry inhibitors” (J Med Chem, 2013).

What was measured:
Conditions in all cases: HEK-293T
Hepatitis C virus [1] = assay: Antiviral activity against pseudo HCV infected in human 293T cells assessed as inhibition of HCV pseudo particles entry at 10 uM after 72 hrs by luciferase reporter gene assay; assay type: functional, Hepacivirus hominis
Hepatitis C virus [2] = assay: Antiviral activity against pseudo HCV infected in human 293T cells assessed as inhibition of HCV pseudo particles entry at 1 uM after 72 hrs by luciferase reporter gene assay; assay type: functional, Hepacivirus hominis
Hepatitis C virus [3] = assay: Antiviral activity against pseudo HCV infected in human 293T cells assessed as inhibition of HCV pseudo particles entry at 5 uM after 72 hrs by luciferase reporter gene assay; assay type: functional, Hepacivirus hominis
[4] = tested on: Vesicular stomatitis virus; assay: Antiviral activity against pseudo VSV infected in human 293T cells assessed as inhibition of vesicular stromatis G protein pseudo particles entry at 5 uM after 72 hrs by luciferase reporter gene assay; assay type: functional
[5] = tested on: Vesicular stomatitis virus; assay: Antiviral activity against pseudo VSV infected in human 293T cells assessed as inhibition of vesicular stromatis G protein pseudo particles entry at 1 uM after 72 hrs by luciferase reporter gene assay; assay type: functional

| SMILES | inhibition at 10 µM (Hepatitis C virus [1]) [%] | further results |
| --- | --- | --- |
| C=C(C)[C@@H]1CC[C@]2(C(=O)O)CC[C@]3(C)[C@H](CC[C@@H]4[C@@]5(C)CC[C@H](O)C(C)(C)[C@@H]5CC[C@]43C)[C@@H]12 [BETULINIC ACID] | 75 |  |
| CC1(C)CC[C@]2(C(=O)O)[C@H](O)C[C@]3(C)C(=CC[C@@H]4[C@@]5(C)CC[C@H](O)[C@@](C)(CO)[C@@H]5CC[C@]43C)[C@@H]2C1 | 20 |  |
| CC1(C)CC[C@]2(C(=O)O)[C@H](O)C[C@]3(C)C(=CC[C@@H]4[C@@]5(C)CC[C@H](O)[C@@](C)(C=O)[C@@H]5CC[C@]43C)[C@@H]2C1 [QUILLAIC ACID] | 0 |  |
| CC1(C)CC[C@]2(C(=O)O)CC[C@]3(C)C(=CC[C@@H]4[C@@]5(C)CC[C@H](O)[C@@](C)(C(=O)O)[C@@H]5CC[C@]43C)[C@@H]2C1 | 0 |  |
| COC(=O)[C@]12CCC(C)(C)C[C@H]1C1=CC[C@@H]3[C@@]4(C)CC[C@H](O)C(C)(C)[C@@H]4CC[C@@]3(C)[C@]1(C)CC2 [METHYL OLEANOLATE] | 60 |  |
| CC1(C)CC[C@]2(C(=O)O)CC[C@]3(C)C(=CC[C@@H]4[C@@]5(C)C[C@@H](O)[C@H](O)[C@@](C)(CO)[C@@H]5CC[C@]43C)[C@@H]2C1 [ARJUNOLIC ACID] | 0 |  |
| CC1(C)[C@@H](O)CC[C@]2(C)[C@H]3CC=C4[C@@H]5C[C@](C)(CO)CC[C@]5(C(=O)O)[C@H](O)C[C@@]4(C)[C@]3(C)CC[C@@H]12 | 90 |  |
| CC1(C)CC[C@]2(C(=O)O)CC[C@]3(C)C(=CC[C@@H]4[C@@]5(C)CC[C@H](OC6O[C@H](CO)[C@@H](O)[C@H](O)[C@H]6O)C(C)(C)[C@@H]5CC[C@]43C)[C@@H]2C1 (stereo partly specified) | 0 |  |
| CC1(C)CC[C@]2(C(=O)O)CC[C@]3(C)C(=CC[C@@H]4[C@@]5(C)CC[C@H](OC6O[C@H](CO)[C@@H](O)[C@H](O)[C@H]6O)[C@@](C)(CO)[C@@H]5CC[C@]43C)[C@@H]2C1 (stereo partly specified) | 0 |  |
| CC1(C)CC[C@]2(C(=O)O)CC[C@]3(C)C(=CC[C@@H]4[C@@]5(C)CC[C@H](O)[C@@](C)(CO)[C@@H]5CC[C@]43C)[C@@H]2C1 [HEDERAGENIN] | 10 |  |
| CC1(C)CC[C@]2(C(=O)NCCCC[C@H](N)C(=O)O)CC[C@]3(C)C(=CC[C@@H]4[C@@]5(C)CC[C@H](O)C(C)(C)[C@@H]5CC[C@]43C)[C@@H]2C1 | 60 |  |
| CC(=O)O[C@H]1CC[C@]2(C)[C@H]3CC=C4[C@@H]5CC(C)(C)CC[C@]5(C(=O)O)CC[C@@]4(C)[C@]3(C)CC[C@H]2C1(C)C [ACETYL OLEANOLIC ACID] | 10 |  |
| CC1(C)CC[C@]2(C(=O)O)[C@H](O)C[C@]3(C)C(=CC[C@@H]4[C@@]5(C)CC[C@H](O)C(C)(C)[C@@H]5[C@H](O)C[C@]43C)[C@@H]2C1 | 5 |  |
| CC1(C)CC[C@]2(C(=O)O)[C@H](O)C[C@]3(C)C(=CC[C@@H]4[C@@]5(C)CC[C@H](O)[C@@](C)(C(=O)O)[C@@H]5CC[C@]43C)[C@@H]2C1 | 0 |  |
| CC1(C(=O)O)CC[C@]2(C)CC[C@]3(C)C(=CC(=O)[C@@H]4[C@@]5(C)CC[C@H](O)C(C)(C)[C@@H]5CC[C@]43C)[C@@H]2C1 (single isomer, unassigned) [ENOXOLONE] | 5 |  |
| CC1(C)CC[C@]2(C(=O)O)CC[C@]3(C)[C@H](C(O)C[C@@H]4[C@@]5(C)CC[C@H](O)C(C)(C)[C@@H]5CC[C@]43C)[C@@H]2C1 (stereo partly specified) | 60 |  |
| CC1(C)CC[C@]2(C(=O)O)CC[C@]3(C)C(=CC[C@@H]4[C@@]5(C)CC[C@H](O)C(C)(C)[C@@H]5[C@@H](O)C[C@]43C)[C@@H]2C1 | 0 |  |
| CC1(C)CC[C@]2(C(=O)O)CC[C@]3(C)[C@H](C(=O)C[C@@H]4[C@@]5(C)CC[C@H](O)C(C)(C)[C@@H]5CC[C@]43C)[C@@H]2C1 | 50 |  |
| C[C@H]1[C@H](C)CC[C@]2(C(=O)O)CC[C@]3(C)C(=CC[C@@H]4[C@@]5(C)CC[C@H](O)C(C)(C)[C@@H]5CC[C@]43C)[C@H]12 [URSOLIC ACID] | 30 |  |
| CC1(C)CC[C@]2(C(=O)O)CC[C@]3(C)C(=CC[C@@H]4[C@@]5(C)C[C@@H](O)[C@H](O)C(C)(C)[C@@H]5CC[C@]43C)[C@@H]2C1 [MASLINIC ACID] | 0 |  |
| CC1(C)C[C@H]2C3=CC[C@@H]4[C@@]5(C)CC[C@H](O)C(C)(C)[C@@H]5CC[C@@]4(C)[C@]3(C)C[C@@H](O)[C@@]2(C(=O)O)C[C@@H]1O | 15 |  |
| CC1(C)CC[C@]2(C(=O)O)CC[C@]3(C)C(=C[C@@H](O)[C@@H]4[C@@]5(C)CC[C@H](O)C(C)(C)[C@@H]5CC[C@]43C)[C@@H]2C1 | 50 |  |
| CC(=O)OC[C@H]1O[C@@H](n2cc(CNC(=O)[C@]34CCC(C)(C)C[C@H]3C3=CC[C@@H]5[C@@]6(C)CC[C@H](O)C(C)(C)[C@@H]6CC[C@@]5(C)[C@]3(C)C[C@H]4O)nn2)[C@H](OC(C)=O)[C@@H](OC(C)=O)[C@@H]1O[C@@H]1O[C@H](COC(C)=O)[C@@H](OC(C)=O)[C@H](OC(C)=O)[C@H]1OC(C)=O |  | inhibition at 1 µM (Hepatitis C virus [2]): 11.9%; inhibition at 5 µM (Hepatitis C virus [3]): 64.8%; inhibition at 5 µM [4]: 38.8%; inhibition at 1 µM [5]: 36.8% |
| CC1(C)CC[C@]2(C(=O)O)CC[C@]3(C)C(=CC[C@@H]4[C@@]5(C)CCC(=O)C(C)(C)[C@@H]5CC[C@]43C)[C@@H]2C1 [OLEANONIC ACID] | 0 |  |
| CC1(C)CC[C@]2(C(=O)O)CC[C@]3(C)C(=CC[C@@H]4[C@@]5(C)CC[C@H](O)[C@@](C)(C=O)[C@@H]5CC[C@]43C)[C@@H]2C1 | 0 |  |
| CC(=O)O[C@@H]1[C@H](OC(=O)[C@]23CCC(C)(C)C[C@H]2C2=CC[C@@H]4[C@@]5(C)CC[C@H](O)C(C)(C)[C@@H]5CC[C@@]4(C)[C@]2(C)C[C@H]3O)OC[C@@H](OC(C)=O)[C@H]1OC(C)=O |  | inhibition at 1 µM (Hepatitis C virus [2]): 19.3%; inhibition at 5 µM (Hepatitis C virus [3]): 60.6%; inhibition at 5 µM [4]: 20.1%; inhibition at 1 µM [5]: 17.1% |
| CC1(C)CC[C@]2(C(=O)O[C@@H]3OC[C@@H](O)[C@@H](O)[C@@H]3O)[C@H](O)C[C@]3(C)C(=CC[C@@H]4[C@@]5(C)CC[C@H](O)C(C)(C)[C@@H]5CC[C@]43C)[C@@H]2C1 |  | inhibition at 1 µM (Hepatitis C virus [2]): 34.7%; inhibition at 5 µM (Hepatitis C virus [3]): 54.6%; inhibition at 5 µM [4]: 5.8%; inhibition at 1 µM [5]: 15.6% |
